Reference: PMC5374215, “Fludarabine Inhibits KV1.3 Currents in Human B Lymphocytes” (Frontiers in Pharmacology, 2017)

Target: T1, KV1.3 (Homo sapiens, UniProt P22001)
T1 construct: gene KCNA3; human KV1.3 channel (KV1.3-pEYFP) transiently transfected in HEK-293 cells
Assay: whole-cell patch clamp of KV1.3-transfected HEK-293 cells
Type: cell-based
Details: HEK293

T1 sequence (P22001 whole entry): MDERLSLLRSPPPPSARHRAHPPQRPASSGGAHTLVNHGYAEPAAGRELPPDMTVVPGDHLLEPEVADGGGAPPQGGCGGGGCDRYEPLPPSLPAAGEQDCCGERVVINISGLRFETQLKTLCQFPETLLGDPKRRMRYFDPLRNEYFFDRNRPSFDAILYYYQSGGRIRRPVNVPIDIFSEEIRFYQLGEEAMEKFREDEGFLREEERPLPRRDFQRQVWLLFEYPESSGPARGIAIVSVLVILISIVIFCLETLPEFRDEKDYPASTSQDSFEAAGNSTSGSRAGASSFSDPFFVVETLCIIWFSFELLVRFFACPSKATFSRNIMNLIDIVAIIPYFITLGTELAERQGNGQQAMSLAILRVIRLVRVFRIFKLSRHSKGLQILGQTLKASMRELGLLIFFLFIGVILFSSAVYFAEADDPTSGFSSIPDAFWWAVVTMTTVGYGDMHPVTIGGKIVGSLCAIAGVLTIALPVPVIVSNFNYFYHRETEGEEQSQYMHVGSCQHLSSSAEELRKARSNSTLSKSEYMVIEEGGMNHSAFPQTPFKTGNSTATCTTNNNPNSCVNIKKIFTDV

O=c1ccc2c(OCCCCOc3ccccc3)c3ccoc3cc2o1 [PAP-1, 5-(4-phenoxybutoxy)psoralen]
inhibition at 0.2 µM: 89.5 ± 2.8%
